Our source for the IC50 and inhibition values is ChEMBL document CHEMBL1287791, “In silico identification and biochemical evaluation of novel inhibitors of NRH:quinone oxidoreductase 2 (NQO2)” (Bioorg Med Chem Lett, 2010).

The target of test [1] is T1, Ribosyldihydronicotinamide dehydrogenase [quinone] (Homo sapiens, UniProt P16083).
T1 sequence (P16083 whole entry): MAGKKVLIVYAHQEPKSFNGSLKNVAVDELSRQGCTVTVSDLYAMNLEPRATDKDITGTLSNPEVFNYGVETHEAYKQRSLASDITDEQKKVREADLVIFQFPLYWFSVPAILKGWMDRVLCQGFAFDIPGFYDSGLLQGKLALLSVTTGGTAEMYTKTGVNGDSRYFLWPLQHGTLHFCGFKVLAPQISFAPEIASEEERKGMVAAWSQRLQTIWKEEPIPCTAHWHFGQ
Briefly: Inhibition of human recombinant NQO2.

The target of test [2] is T2, Ribosyldihydronicotinamide dehydrogenase [quinone] (Homo sapiens) (UniProt P16083).
T2 sequence (whole entry): T1 sequence (P16083 whole entry)
Put plainly: Inhibition of human recombinant NQO2 at 100 uM.

Test [3] concerns the target NAD(P)H dehydrogenase [quinone] 1 (Homo sapiens, UniProt P15559). Briefly: Inhibition of human recombinant NQO1.

Active and inactive are the calls of the source. How the calls were made is not given here.

NAD(P)H dehydrogenase [quinone] 1, sequence (P15559 whole entry): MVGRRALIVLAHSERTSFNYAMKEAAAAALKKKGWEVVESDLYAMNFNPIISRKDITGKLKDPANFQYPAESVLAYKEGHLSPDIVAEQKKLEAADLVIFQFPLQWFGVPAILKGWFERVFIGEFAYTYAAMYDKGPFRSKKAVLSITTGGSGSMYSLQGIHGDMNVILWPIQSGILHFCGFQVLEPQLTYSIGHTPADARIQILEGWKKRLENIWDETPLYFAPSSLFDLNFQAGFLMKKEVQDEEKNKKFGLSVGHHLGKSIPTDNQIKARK

What is called IC50 is the point on the concentration scale where inhibition reaches its midpoint. Consider `Cc1nc(-n2nc(-c3ccccc3)cc2-c2ccccc2)sc1C(=O)/C=C/c1cccc([N+](=O)[O-])c1`, for which the IC50 in test [1] was found to be 6.5 µM.

As for `Cn1c2ccccc2c2c3ccc[n+](C)c3ccc21`, the inhibition entry in test [2] is “inactive”. For the same compound, the half-inhibitory concentration (IC50) in test [1] came out at 5.5 µM.

In the case of `Cc1ccc(/C=C/C(=O)c2sc(-n3nc(-c4ccccc4)cc3-c3ccccc3)nc2C)cc1`, in test [1], the IC50 amounted to 3.2 µM.

Consider `COc1ccc(/C(C#N)=C\c2cc(OC)c(OC)c(OC)c2)cc1`, for which the IC50 in test [3] came out at 40 µM; in test [1], 20 µM.

Consider `C(=N\NC1=NCCN1)/c1c2ccccc2c(/C=N/NC2=NCCN2)c2ccccc12`, for which, in test [2], the inhibition entry is “inactive”.

For `CCn1c2ccccc2c2cc(N)c(/N=N/c3ccc([N+](=O)[O-])cc3)cc21`, the inhibition entry in test [2] is “inactive”. Moreover, in test [1], the IC50 was 5 µM.

On to `Oc1cc(O)c2ccccc2c1`, for which the inhibition entry in test [2] is “inactive”. The IC50 in test [1] was found to be 3.3 µM.

On to `Oc1ccc(-c2ccc(O)cc2O)c(O)c1`, for which, in test [2], the inhibition result was “inactive”.

`Cc1ccc(C(=N)c2ccccc2Cc2cccc3ccccc23)c2ccccc12`: the inhibition entry in test [2] is “inactive”.

Consider `O=[N+]([O-])c1ccc(/C=C/c2cc(-c3ccccc3)nc3ccc4ccccc4c23)cc1`, for which, in test [2], the inhibition entry was “inactive”. In addition, in test [1], the half-maximal inhibitory concentration (IC50) was determined as 9.6 µM.

Turning to `Cc1ccc(-c2cn3c(nc4ccccc43)c(-c3ccccc3)n2)cc1`, the inhibition result in test [2] was “inactive”.

Turning to `O=C(C(=O)c1cc(-c2ccccc2)nc2ccc3ccccc3c12)c1ccccc1`, the inhibition entry in test [2] was “inactive”.

On to `CN(C)c1ccc(NN=C2SC(=N\c3ccccc3)/C(=N/c3ccccc3)S2)cc1`, for which the inhibition result in test [2] is “inactive”.

`N=C(N)c1ccc(/N=N/c2cc(/N=N/c3ccccc3)ccc2O)cc1`: in test [2], the inhibition result was “inactive”. For the same compound, the half-inhibitory concentration (IC50) in test [1] is 1.8 µM.

As for `CCN(CC)CCNC(=O)c1c2c(nc3ccccc13)CCCC2`, the inhibition result in test [2] was “inactive”.

In the case of `Cc1nc(-n2nc(-c3ccccc3)cc2-c2ccccc2)sc1C(=O)/C=C/c1ccc(Cl)cc1`, in test [1], the IC50 was 5.3 µM.

Regarding `COc1cc(/C=C/c2ccc(OC)c(O)c2)cc(OC)c1`, the IC50 in test [1] was 15 µM.

In the case of `Cc1ccc(-n2cc(-c3ccc(Cl)cc3)c3c2N=CN2N=C(c4cccs4)NC32)cc1` (stereo not drawn), the inhibition entry in test [2] is “inactive”.

As for `C/C(=N\NC(=O)c1ccncc1)c1sc(-n2nc(-c3ccccc3)cc2-c2ccccc2)nc1C`, the inhibition result in test [2] is “inactive”.

For `CC(/C=C/C(=O)c1sc(-n2nc(-c3ccccc3)cc2-c2ccccc2)nc1C)=C\c1ccccc1`, the IC50 in test [1] was determined as 3.8 µM.

With `Cc1nc(-n2nc(-c3ccccc3)cc2-c2ccccc2)sc1C(=O)/C=C/c1ccc(Cl)c(Cl)c1`, the 50% inhibitory concentration (IC50) in test [1] is 4.9 µM.

`Cc1nc(-n2nc(-c3ccccc3)cc2-c2ccccc2)sc1C(=O)/C=C/c1ccccc1`: the IC50 in test [1] came to 5.8 µM.

As for `c1ccc2c3ccn4ccc5c6ccccc6[nH]c5c4c-3nc2c1`, the inhibition result in test [2] was “inactive”. In test [1], the 50% inhibitory concentration (IC50) was found to be 2.9 µM.

As for `Fc1ccccc1C1CC(c2ccc3ccccc3c2)=Nc2ccccc2S1` (stereo not drawn), in test [3], the IC50 amounted to 0.39 µM.

With `c1ccc(/N=C2\SC(=NNc3ccccc3)S\C2=N/c2ccccc2)cc1`, in test [2], the inhibition result is “inactive”.

`CCN(CC)CCCC(C)Nc1ccnc2cc(Cl)ccc12` (stereo not drawn) [CHLOROQUINE]: the inhibition result in test [2] is “inactive”. For the same compound, the concentration for half-maximal inhibition (IC50) in test [1] came to 1.5 µM.

For the compound `O=[N+]([O-])c1ccc(N/N=C/c2c(Cl)n(-c3ccccc3)c3ccccc23)c([N+](=O)[O-])c1`, in test [2], the inhibition result is “inactive”.

For the compound `N/N=c1\c2ccccc2c2ccc3c4ccccc4/c(=N\N)c3c12`, the inhibition result in test [2] was “inactive”.

Turning to `Clc1ccc(-c2cn3c(nc4ccccc43)c(-c3ccccc3)n2)cc1`, in test [2], the inhibition result was “inactive”.

Turning to `c1ccc2c(-c3ccsc3)c3c(ccc4ccccc43)cc2c1`, the inhibition entry in test [2] was “inactive”. Also, the IC50 in test [1] stood at 5.1 µM.

For the compound `Oc1ccc2ccccc2c1/N=N/c1ccc(F)cc1`, the inhibition result in test [2] is “inactive”.

For `C(=N\c1ccc(-c2cc(-c3ccccc3)nc3ccc4ccccc4c23)cc1)/c1ccccc1`, the inhibition entry in test [2] was “inactive”.

On to `N=C(N)c1ccc(/N=N/c2cc(/C=C/c3ccccc3)ccc2O)cc1`, for which the inhibition result in test [2] was “inactive”. In addition, the concentration for half-maximal inhibition (IC50) in test [1] was found to be 1.4 µM.

As to `CN(C)c1ccc(/C=c2\c3cc([N+](=O)[O-])ccc3n3c2cc(-c2ccccc2)[n+]3C)cc1`, the inhibition result in test [2] was “inactive”. For the same compound, the IC50 in test [1] was found to be 5 µM.

With `c1ccc2sc(-c3c4ccccc4cc4ccc5ccccc5c34)cc2c1`, the IC50 stood at 1.1 µM in test [3] and 6 µM in test [1].

For the compound `Cn1cc/c(=N\N=c2/ccn(C)c3ccccc23)c2ccccc21`, in test [2], the inhibition result is “inactive”. Besides, in test [1], the half-maximal inhibitory concentration (IC50) was 6.2 µM.

For the compound `Cc1ccc2c(c1)-c1c3c(nn1-c1ccccc1)-c1ccccc1SC3O2` (stereo not drawn), the inhibition entry in test [2] is “inactive”.

Regarding `Clc1ccc(-c2nc3ccc4ccccc4c3c3c2CCCC3)cc1`, the inhibition result in test [2] is “inactive”.

In the case of `COc1ccc(/C(Cl)=C(/C=O)c2cc(OC)c(OC)c(OC)c2)cc1OC`, the inhibition entry in test [2] is “inactive”. In test [1], the concentration for half-maximal inhibition (IC50) stood at 22 µM.

As for `COc1cc2cc(-c3cc(OC)c(OC)c(OC)c3)c3c(c2cc1OC)CNC3`, the inhibition result in test [2] was “inactive”. The IC50 in test [1] worked out at 2.7 µM.

For `CN(CCc1ccccn1)c1ccc2c(c1)Cc1ccccc1-2`, the inhibition result in test [2] is “inactive”.

`C(=C\c1c[nH]c2ccccc12)/c1nccc2ccccc12`: in test [2], the inhibition result was “inactive”. Moreover, in test [1], the IC50 was 1.8 µM.

Consider `CCN1/C(=C/c2ccc3ccccc3[n+]2CC)C=Cc2ccccc21`, for which the inhibition entry in test [2] is “inactive”. Also, in test [1], the IC50 was found to be 2.7 µM.

On to `C1=c2ccccc2=C2C(=C(c3ccccc3)C(c3ccccc3)=NN2c2ccccc2)S1`, for which, in test [2], the inhibition result is “inactive”.

Regarding `Clc1ccc2nc3c(c(-c4ccccc4)nn3-c3ccccc3)c(-c3ccccc3)c2c1`, the inhibition entry in test [2] was “inactive”.

In the case of `Cc1cc(NCCCCCCNc2cc(C)nc3ccc(N)cc23)c2cc(N)ccc2n1`, in test [2], the inhibition result was “inactive”. Also, in test [1], the IC50 turned out to be 1.9 µM.

As to `Cc1nc(-n2nc(-c3ccccc3)cc2-c2ccccc2)sc1C(=O)/C=C/c1ccc([N+](=O)[O-])cc1`, the IC50 in test [1] was 6 µM.

Take `CN1CC(c2ccccc2)=CC2=C1C=CC(=N)/C2=N\N`: the inhibition entry in test [2] was “inactive”. In test [1], the concentration for half-maximal inhibition (IC50) was 2 µM.

Take `Cc1c2ccnc(-c3ccccc3)c2cc2c1[nH]c1ccccc12`: the inhibition result in test [2] was “inactive”. The half-inhibitory concentration (IC50) in test [1] was 2.1 µM.

As for `Oc1cc(O)cc(-c2c(O)cc(O)cc2O)c1`, in test [3], the IC50 came out at 10 µM.

With `c1ccc(-c2sc(-c3ccccc3)c3c2C2CCC3C2)cc1`, in test [2], the inhibition entry was “inactive”.

`O=[N+]([O-])c1ccc(-n2nc3ccc4c(no[n+]4[O-])c3n2)cc1`: the inhibition result in test [2] is “inactive”.

For the compound `O=C(NCCc1ccccc1)c1ccc2ccccc2n1`, in test [2], the inhibition entry is “inactive”.

`Fc1ccc2c(c1)SC1Oc3ccccc3-c3c1c-2nn3-c1ccccc1` (stereo not drawn): in test [2], the inhibition entry is “inactive”.

As to `CC(=O)CCNc1ccc(-c2cc(-c3ccc(N(C)C)cc3)nc3ccc4ccccc4c23)cc1`, the inhibition result in test [2] is “inactive”.

In the case of `c1ccc2cc(-c3cc(-c4cc(-c5ccc6ccccc6c5)on4)no3)ccc2c1`, the inhibition entry in test [2] was “inactive”.

`Cc1cc2c(ccc3c2ccc[n+]3C)[nH]1`: in test [2], the inhibition entry is “inactive”. Moreover, the IC50 in test [1] worked out at 2.1 µM.

On to `COc1cc2cc(-c3cc(OC)c(OC)c(OC)c3)c3c(c2cc1OC)CNC3=O`, for which the inhibition result in test [2] is “inactive”. Further, in test [1], the IC50 turned out to be 2 µM.

For `C(=C\Nc1ccc(-c2ccccc2)cc1)/C=N/c1ccc(-c2ccccc2)cc1`, the inhibition entry in test [2] was “inactive”. Also, the half-maximal inhibitory concentration (IC50) in test [1] turned out to be 9.7 µM.

With `COc1cc(NC(C)CCCN)c2ncccc2c1` (stereo not drawn) [PRIMAQUINE], the inhibition entry in test [2] was “inactive”. Further, in test [1], the IC50 was 7.5 µM.

With `N=C(N)c1ccc(/N=N/c2c(O)c(C(=O)Nc3ccccc3)cc3ccccc23)cc1`, the inhibition entry in test [2] was “inactive”. In test [1], the IC50 came out at 6 µM.

For the compound `CCN(CC)Cc1cc(Nc2c3ccccc3nc3c4ccccc4n(C)c23)ccc1O`, the inhibition result in test [2] is “inactive”. Besides, in test [1], the IC50 turned out to be 3.5 µM.

With `C#CCN(Cc1ccc2nc(-c3ccccc3)c(Cl)nc2c1)c1cc(OC)c(OC)c(OC)c1`, the inhibition result in test [2] is “inactive”.

Turning to `Oc1ccccc1C(=NNc1ccccc1)c1ccccc1O`, the IC50 is 3 µM in test [3] and 3.9 µM in test [1].

Regarding `CN(C)c1ccc(/C=c2\c3ccccc3n3c2cc(-c2ccccc2)[n+]3C)cc1`, the inhibition result in test [2] is “inactive”. Further, in test [1], the IC50 amounted to 1.7 µM.
